Laboratory results: ChEMBL document CHEMBL3045426, “Synthesis, Antiviral and Antibacterial Activities of Isatin Mannich Bases” (Med Chem Res, 2005)
pIC50: −log10 of the molar value. Values after ≈ are worked out from the molar mass of the structure shown.

Experiments:
[1] = test system: Salmonella paratyphi; test: Antimicrobial activity against Salmonella enterica subsp. enterica serovar Paratyphi A after 18 to 20 hr by agar dilution method; type: functional
[2] = test system: Mycobacterium tuberculosis; test: Antimycobacterial activity against Mycobacterium tuberculosis H37Rv ATCC 27294; type: functional
[3] = test system: Shigella sonnei; test: Antimicrobial activity against Shigella sonnei after 18 to 20 hr by agar dilution method; type: functional
[4] = test system: Priestia megaterium; test: Antimicrobial activity against Bacillus megaterium after 18 to 20 hr by agar dilution method; type: functional
[5] = test system: Human immunodeficiency virus 1; test: Antiviral activity against Human immunodeficiency virus 1 IIIB infected MT4 cells assessed as protection against viral infection after 5 days by MTT assay; type: functional; parameters: concentration or dose not given beside the values
[6] = test system: Citrobacter freundii; test: Antimicrobial activity against Citrobacter freundii after 18 to 20 hr by agar dilution method; type: functional
[7] = Selectivity index, ratio of CC50 for human MT4 cells to EC50 for HIV1 3B infected in MT4 cells; type: toxicity, cell-based; conditions: read-out: Ratio CC50/EC50
[8] = test system: Plesiomonas; test: Antimicrobial activity against Plesiomonas after 18 to 20 hr by agar dilution method; type: functional
[9] = test system: Pseudomonas aeruginosa; test: Antimicrobial activity against Pseudomonas aeruginosa after 18 to 20 hr by agar dilution method; type: functional
[10] = test system: Staphylococcus aureus; test: Antimicrobial activity against Staphylococcus aureus after 18 to 20 hr by agar dilution method; type: functional
[11] = test system: Klebsiella pneumoniae; test: Antimicrobial activity against Klebsiella pneumoniae after 18 to 20 hr by agar dilution method; type: functional
[12] = test system: Vibrio mimicus; test: Antimicrobial activity against Vibrio mimicus after 18 to 20 hr by agar dilution method; type: functional
[13] = test system: Vibrio cholerae; test: Antimicrobial activity against Vibrio cholerae 0139 after 18 to 20 hr by agar dilution method; type: functional; conditions: 139
[14] = test system: Edwardsiella tarda; test: Antimicrobial activity against Edwardsiella tarda after 18 to 20 hr by agar dilution method; type: functional
[15] = test system: Proteus mirabilis; test: Antimicrobial activity against Proteus mirabilis after 18 to 20 hr by agar dilution method; type: functional
[16] = test system: Morganella morganii; test: Antimicrobial activity against Morganella morganii after 18 to 20 hr by agar dilution method; type: functional
[17] = test system: Human immunodeficiency virus 1; test: Antiviral activity against Human immunodeficiency virus 1 IIIB infected CEM cells assessed as inhibition of virus-induced cytopathicity after 6 days by XTT assay; type: functional, organism-based; conditions: CCRF-CEM, 144 h
[18] = Cytotoxicity against Homo sapiens (human) CEM cells after 5 days by MTT assay; type: cell-based; conditions: CEM cells (CCRF-CEM)
[19] = test system: Salmonella enteritidis; test: Antimicrobial activity against Salmonella enterica subsp. enterica serovar Enteritidis after 18 to 20 hr by agar dilution method; type: functional
[20] = test system: Vibrio fluvialis; test: Antimicrobial activity against Vibrio fluvialis after 18 to 20 hr by agar dilution method; type: functional
[21] = test system: Vibrio parahaemolyticus; test: Antimicrobial activity against Vibrio parahaemolyticus after 18 to 20 hr by agar dilution method; type: functional
[22] = test system: Human immunodeficiency virus 1; test: Antiviral activity against Human immunodeficiency virus 1 IIIB infected CEM cells assessed as protection against viral infection after 6 days by XTT assay; type: functional, CCRF-CEM; parameters: concentration or dose not given beside the values
[23] = test system: Mycobacterium tuberculosis; test: Antimycobacterial activity against Mycobacterium tuberculosis H37Rv ATCC 27294 at 6.25 ug/ml by MABA; type: functional
[24] = test system: Escherichia coli; test: Antibacterial activity against Escherichia coli NCTC 10418 infected in po dosed CF mouse compound administered 1 hr prior and 4 hr post infection; type: functional; conditions: NCTC 10418, po
[25] = Cytotoxicity against Homo sapiens (human) MT4 cells after 5 days by MTT assay; type: cell-based
[26] = test system: Salmonella typhimurium; test: Antimicrobial activity against Salmonella enterica subsp. enterica serovar Typhimurium after 18 to 20 hr by agar dilution method; type: functional
[27] = test system: Vibrio cholerae; test: Antimicrobial activity against Vibrio cholerae 01 after 18 to 20 hr by agar dilution method; type: functional; conditions: 1
[28] = test system: Hepatitis C virus; test: Antiviral activity against Hepatitis C virus BM4-5 infected in Huh7 cells assessed as inhibition of viral RNA replication by phosphor screening method; type: functional, Hepacivirus hominis, Huh-7
[29] = Cytotoxicity against Homo sapiens (human) HuH7 cells assessed as cell growth at 50 ug/ml after 3 days by Neutral red assay; type: cell-based, Huh-7; conditions: read-out: Activity
[30] = test system: Proteus vulgaris; test: Antimicrobial activity against Proteus vulgaris after 18 to 20 hr by agar dilution method; type: functional
[31] = test system: Escherichia coli; test: Antimicrobial activity against Escherichia coli NCTC 10418 after 18 to 20 hr by agar dilution method; type: functional
[32] = test system: Human immunodeficiency virus 1; test: Antiviral activity against Human immunodeficiency virus 1 IIIB infected MT4 cells assessed as inhibition of virus-induced cytopathicity after 5 days by MTT assay; type: functional, organism-based; conditions: MT4, 120 h
[33] = test system: Enterobacter; test: Antimicrobial activity against Enterobacter after 18 to 20 hr by agar dilution method; type: functional
[34] = test system: Klebsiella pneumoniae; test: Antimicrobial activity against Klebsiella pneumoniae subsp. ozaenae after 18 to 20 hr by agar dilution method; type: functional
[35] = test system: Vero; test: Cytotoxicity against Chlorocebus aethiops (African green monkey) Vero cells up to 62.5 ug/ml; type: cell-based; conditions: chlorocebus sabaeus
[36] = test system: Shigella boydii; test: Antimicrobial activity against Shigella boydii after 18 to 20 hr by agar dilution method; type: functional
[37] = test system: Salmonella typhi; test: Antimicrobial activity against Salmonella enterica subsp. enterica serovar Typhi after 18 to 20 hr by agar dilution method; type: functional
[38] = test system: Escherichia coli; test: Ratio of ciproflaxacin ED50 to compound ED50 for Escherichia coli NCTC 10418 infected in po dosed CF mouse; type: functional
[39] = target: Human immunodeficiency virus type 1 reverse transcriptase (Human immunodeficiency virus 1, UniProt Q72547); test: Inhibition of Human immunodeficiency virus 1 RT using Poly(vC)oligo (dG) as template/primer after 30 min

SMILES | MIC [1] [µg/mL] | MIC [2] [µg/mL] | MIC [3] [µg/mL] | MIC [4] [µg/mL] | MIC [6] [µg/mL] | MIC [8] [µg/mL] | MIC [9] [µg/mL] | MIC [10] [µg/mL] | MIC [11] [µg/mL] | MIC [12] [µg/mL] | MIC [13] [µg/mL] | MIC [14] [µg/mL] | MIC [15] [µg/mL] | MIC [16] [µg/mL] | EC50 [17] [µg/mL] | CC50 at 120 h [18] [µg/mL] | MIC [19] [µg/mL] | MIC [20] [µg/mL] | MIC [21] [µg/mL] | Activity [22] [%] | further results
CCn1cc(C(=O)O)c(=O)c2cc(F)c(N3CCN(CN4C(=O)/C(=N\c5ncc(Cc6cc(OC)c(OC)c(OC)c6)c(N)n5)c5cc(Cl)ccc54)C(C)C3)c(F)c21 (stereo unspecified) | 0.019 (≈ 0.0232 µM) | 1.56 (≈ 1.91 µM) | 4.88 (≈ 5.97 µM) | 0.019 (≈ 0.0232 µM) | 0.0047 (≈ 0.00575 µM) | 1.22 (≈ 1.49 µM) | 0.153 (≈ 0.187 µM) | 0.0763 (≈ 0.0934 µM) | 9.77 (≈ 11.9 µM) | 0.0381 (≈ 0.0466 µM) | 0.0381 (≈ 0.0466 µM) | 0.0763 (≈ 0.0934 µM) | 0.0763 (≈ 0.0934 µM) | 0.153 (≈ 0.187 µM) | > 18.7 | 18.7 (≈ 22.9 µM) | 0.0095 (≈ 0.0116 µM) | 0.019 (≈ 0.0232 µM) | 0.0047 (≈ 0.00575 µM) | 48.3 | Activity [5]: 89%; selectivity ratio [7]: 3; inhibition at 6.25 µg/mL [23]: 100%; ED50 [24]: 1.25 mg/kg; CC50 at 120 h [25]: 36.9 µg/mL (≈ 45.2 µM); MIC [26]: 0.0381 µg/mL (≈ 0.0466 µM); MIC [27]: 0.0095 µg/mL (≈ 0.0116 µM); inhibition (INH) [28]: 60%; viability at 72 h, 50 ug/ml [29]: 85%; MIC [30]: 0.153 µg/mL (≈ 0.187 µM); MIC [31]: 0.153 µg/mL (≈ 0.187 µM); EC50 [32]: 17.2 µg/mL (≈ 21 µM); MIC [33]: 0.0095 µg/mL (≈ 0.0116 µM); MIC [34]: 19.5 µg/mL (≈ 23.9 µM); Activity [35]: Non-toxic; MIC [36]: 0.305 µg/mL (≈ 0.373 µM); MIC [37]: 0.019 µg/mL (≈ 0.0232 µM)
COc1cc(Cc2cnc(/N=C3\C(=O)N(CN4CCN(c5c(F)cc6c(=O)c(C(=O)O)cn(C7CC7)c6c5F)CC4C)c4ccc(Cl)cc43)nc2N)cc(OC)c1OC (stereo unspecified) | 0.153 (≈ 0.184 µM) | 3.13 (≈ 3.77 µM) | 0.152 (≈ 0.183 µM) | 0.019 (≈ 0.0229 µM) | 0.0095 (≈ 0.0115 µM) | 0.0381 (≈ 0.0459 µM) | 0.019 (≈ 0.0229 µM) | 0.019 (≈ 0.0229 µM) | 2.44 (≈ 2.94 µM) | 0.019 (≈ 0.0229 µM) | 0.153 (≈ 0.184 µM) | 0.0763 (≈ 0.092 µM) | 0.0763 (≈ 0.092 µM) | 0.0381 (≈ 0.0459 µM) | > 67 | 67 (≈ 80.8 µM) | 0.019 (≈ 0.0229 µM) | 0.019 (≈ 0.0229 µM) | 0.0763 (≈ 0.092 µM) | 20.04 | inhibition at 6.25 µg/mL [23]: 100%; MIC [26]: 0.0381 µg/mL (≈ 0.0459 µM); MIC [27]: 0.61 µg/mL (≈ 0.736 µM); MIC [30]: 0.0763 µg/mL (≈ 0.092 µM); MIC [31]: 0.0763 µg/mL (≈ 0.092 µM); MIC [33]: 0.019 µg/mL (≈ 0.0229 µM); MIC [34]: 0.0381 µg/mL (≈ 0.0459 µM); Activity [35]: Non-toxic; MIC [36]: 0.0381 µg/mL (≈ 0.0459 µM); MIC [37]: 0.019 µg/mL (≈ 0.0229 µM)
COc1cc(Cc2cnc(/N=C3\C(=O)N(CN4CCN(c5cc6c(cc5F)c(=O)c(C(=O)O)cn6C5CC5)CC4)c4ccc(Cl)cc43)nc2N)cc(OC)c1OC | 0.153 (≈ 0.191 µM) | 3.13 (≈ 3.93 µM) | 0.31 (≈ 0.389 µM) | 0.019 (≈ 0.0238 µM) | 1.22 (≈ 1.53 µM) | 1.22 (≈ 1.53 µM) | 1.22 (≈ 1.53 µM) | 4.88 (≈ 6.12 µM) | 0.31 (≈ 0.389 µM) | 0.0095 (≈ 0.0119 µM) | 0.019 (≈ 0.0238 µM) | 0.019 (≈ 0.0238 µM) | 0.019 (≈ 0.0238 µM) | 1.22 (≈ 1.53 µM) | > 200 | > 200 | 0.61 (≈ 0.766 µM) | 0.0095 (≈ 0.0119 µM) | 0.0763 (≈ 0.0957 µM) | 33.3 | Activity [5]: 101%; selectivity ratio [7]: > 19; inhibition at 6.25 µg/mL [23]: 100%; ED50 [24]: 0.62 mg/kg; CC50 at 120 h [25]: 187 µg/mL (≈ 234 µM); MIC [26]: 0.0047 µg/mL (≈ 0.0059 µM); MIC [27]: 4.88 µg/mL (≈ 6.12 µM); inhibition (INH) [28]: 86%; viability at 72 h, 50 ug/ml [29]: 109%; MIC [30]: 0.0095 µg/mL (≈ 0.0119 µM); MIC [31]: 0.0381 µg/mL (≈ 0.0478 µM); EC50 [32]: 9.4 µg/mL (≈ 11.8 µM); Ratio ED50 [38]: 2; pIC50 [39]: 4.74; MIC [33]: 0.0381 µg/mL (≈ 0.0478 µM); MIC [34]: 4.83 µg/mL (≈ 6.06 µM); Activity [35]: Non-toxic; MIC [36]: 2.44 µg/mL (≈ 3.06 µM); MIC [37]: 0.305 µg/mL (≈ 0.383 µM)
